Test results published in ChEMBL document CHEMBL1154519, “Synthesis of novel di- and tricationic carbapenems with potent anti-MRSA activity” (Bioorg Med Chem Lett, 2009).
In brackets after ≈: the same amount, converted by molar mass.

Key:
Staphylococcus aureus [1] = experiment: Antibacterial activity against methicillin-resistant Staphylococcus aureus M-126; format: functional
Staphylococcus aureus [2] = experiment: Antibacterial activity against carbapenem-resistant Staphylococcus aureus M-126HR; format: functional
Staphylococcus aureus [3] = experiment: Antibacterial activity against methicillin-resistant Staphylococcus aureus 209P JC1; format: functional
Staphylococcus aureus [4] = experiment: Antibacterial activity against methicillin-resistant Staphylococcus aureus; format: functional
[5] = Solubility in water at 5 mg/mL; format: physicochemical

Row | Compound | MIC (Staphylococcus aureus [1]) [µg/mL] | MIC (Staphylococcus aureus [2]) [µg/mL] | MIC (Staphylococcus aureus [3]) [ng/mL] | MIC50 (Staphylococcus aureus [4]) [µg/mL] | MIC90 (Staphylococcus aureus [4]) [µg/mL] | solubility [5] [mg/mL]
1 | CSc1c2sc(C3=C(C(=O)[O-])N4C(=O)[C@H]([C@@H](C)O)[C@H]4[C@H]3C)cn2c[n+]1CC(N)=O | 1.56 (≈ 3.57 µM) | 3.13 (≈ 7.17 µM) | < 6 | – | – | –
2 | CSc1c2sc(C3=C(C(=O)[O-])N4C(=O)[C@H]([C@@H](C)O)[C@H]4[C@H]3C)cn2c[n+]1Cc1ccc(C(=O)O)cc1 | 3.13 (≈ 6.09 µM) | 12.5 (≈ 24.3 µM) | 25 (≈ 0.0487 µM) | – | – | –
3 | CSc1c2sc(C3=C(C(=O)O)N4C(=O)[C@H]([C@@H](C)O)[C@H]4[C@H]3C)cn2c[n+]1Cc1cccc(C[n+]2ccc3ccccc3c2)c1.[Br-].[Br-] | 0.78 | 1.56 | < 6 | – | – | –
4 | CSc1c2sc(C3=C(C(=O)O)N4C(=O)[C@H]([C@@H](C)O)[C@H]4[C@H]3C)cn2c[n+]1Cc1cccc(C[n+]2cc3sccn3c2)c1.[Br-].[Br-] | 0.78 | 1.56 | < 6 | – | – | –
5 | CSc1c2sc(C3=C(C(=O)O)N4C(=O)[C@H]([C@@H](C)O)[C@H]4[C@H]3C)cn2c[n+]1Cc1cccc(C[N+]23CC[N+](C)(CC2)CC3)c1.[I-].[I-].[I-] | 0.78 | 1.56 | < 6 | – | – | –
6 | CSc1c2sc(C3=C(C(=O)O)N4C(=O)[C@H]([C@@H](C)O)[C@H]4[C@H]3C)cn2c[n+]1Cc1cccc(C[N+]2(C)CCOCC2)c1.[Br-].[Br-] | 0.78 | 3.13 | < 6 | – | – | –
7 | CSc1c2sc(C3=C(C(=O)O)N4C(=O)[C@H]([C@@H](C)O)[C@H]4[C@H]3C)cn2c[n+]1Cc1cccc(C[N+]2(C)CCCC2)c1.[Br-].[Br-] | 0.78 | 3.13 | < 6 | – | – | –
8 | CSc1c2sc(C3=C(C(=O)O)N4C(=O)[C@H]([C@@H](C)O)[C@H]4[C@H]3C)cn2c[n+]1Cc1cccc(C[n+]2ccsc2)c1.[Br-].[Br-] | 0.78 | 3.13 | < 6 | – | – | –
9 | C[C@@H](O)[C@H]1C(=O)N2C(C(=O)O)=C(SCCNC=N)C[C@H]12 [IMIPENEM ANHYDROUS] | 25 (≈ 83.5 µM) | 100 (≈ 334 µM) | 13 (≈ 0.0434 µM) | – | – | –
10 | CSc1c2sc(C3=C(C(=O)O)N4C(=O)[C@H]([C@@H](C)O)[C@H]4[C@H]3C)cn2c[n+]1Cc1cccc(C[n+]2ccccc2)c1.[Br-].[Br-] | 0.78 | 1.56 | < 6 | – | – | –
11 | CSc1c2sc(C3=C(C(=O)[O-])N4C(=O)[C@H]([C@@H](C)O)[C@H]4[C@H]3C)cn2c[n+]1Cc1cccc(O)c1 | 0.39 (≈ 0.803 µM) | 1.56 (≈ 3.21 µM) | < 6 | – | – | –
12 | CSc1c2sc(C3=C(C(=O)[O-])N4C(=O)[C@H]([C@@H](C)O)[C@H]4[C@H]3C)cn2c[n+]1Cc1cccc(N)c1 | 0.78 (≈ 1.61 µM) | 3.13 (≈ 6.46 µM) | < 6 | – | – | –
13 | CN[C@H](CC(C)C)C(=O)N[C@H]1C(=O)N[C@@H](CC(N)=O)C(=O)N[C@H]2C(=O)N[C@H]3C(=O)N[C@H](C(=O)N[C@H](C(=O)O)c4cc(O)cc(O)c4-c4cc3ccc4O)[C@H](O)c3ccc(c(Cl)c3)Oc3cc2cc(c3O[C@@H]2O[C@H](CO)[C@@H](O)[C@H](O)[C@H]2O[C@H]2C[C@](C)(N)[C@H](O)[C@H](C)O2)Oc2ccc(cc2Cl)[C@H]1O [VANCOMYCIN] | 1.56 (≈ 1.08 µM) | 1.56 (≈ 1.08 µM) | 780 (≈ 0.538 µM) | 1.56 (≈ 1.08 µM) | 1.56 (≈ 1.08 µM) | –
14 | CSc1c2sc(C3=C(C(=O)O)N4C(=O)[C@H]([C@@H](C)O)[C@H]4[C@H]3C)cn2c[n+]1Cc1ccccc1C[n+]1ccccc1.[Br-].[Br-] | 1.56 | 3.13 | < 6 | – | – | –
15 | CSc1c2sc(C3=C(C(=O)O)N4C(=O)[C@H]([C@@H](C)O)[C@H]4[C@H]3C)cn2c[n+]1Cc1ccccc1C[N+]1(C)CCOCC1.[Br-].[Br-] | 1.56 | 3.13 | < 6 | – | – | –
16 | CSc1c2sc(C3=C(C(=O)O)N4C(=O)[C@H]([C@@H](C)O)[C@H]4[C@H]3C)cn2c[n+]1Cc1cccc(C[N+]23CC[N+](CC(N)=O)(CC2)CC3)c1.[Br-].[I-].[I-] | 0.78 | 1.56 | < 6 | – | – | –
17 | CSc1c2sc(C3=C(C(=O)O)N4C(=O)[C@H]([C@@H](C)O)[C@H]4[C@H]3C)cn2c[n+]1Cc1cccc(C[n+]2cccc(C(N)=O)c2)c1.[Br-].[Br-] | 0.39 | 1.56 | < 6 | – | – | –
18 | CSc1c2sc(C3=C(C(=O)[O-])N4C(=O)[C@H]([C@@H](C)O)[C@H]4[C@H]3C)cn2c[n+]1Cc1ccccc1 | 0.39 (≈ 0.831 µM) | 1.56 (≈ 3.32 µM) | < 6 | – | – | –
19 | CSc1c2sc(C3=C(C(=O)O)N4C(=O)[C@H]([C@@H](C)O)[C@H]4[C@H]3C)cn2c[n+]1Cc1cccc(C[N+]23CC[N+](CCCN)(CC2)CC3)c1.[I-].[I-].[I-] | 0.39 | 0.78 | < 6 | 0.39 | 0.78 | 20
20 | CSc1c2sc(C3=C(C(=O)O)N4C(=O)[C@H]([C@@H](C)O)[C@H]4[C@H]3C)cn2c[n+]1Cc1ccc(C[N+]2(C)CCOCC2)cc1.[Br-].[Br-] | 1.56 | 3.13 | < 6 | – | – | –
21 | CSc1c2sc(C3=C(C(=O)O)N4C(=O)[C@H]([C@@H](C)O)[C@H]4[C@H]3C)cn2c[n+]1Cc1ccc(C[n+]2ccccc2)cc1.[Br-].[Br-] | 0.78 | 1.56 | < 6 | – | – | –
22 | CSc1c2sc(C3=C(C(=O)[O-])N4C(=O)[C@H]([C@@H](C)O)[C@H]4[C@H]3C)cn2c[n+]1Cc1ccc(C#N)cc1 | 0.78 (≈ 1.58 µM) | 3.13 (≈ 6.33 µM) | < 6 | – | – | –
23 | CCN(CC)C(=O)c1ccc(C[n+]2cn3cc(C4=C(C(=O)[O-])N5C(=O)[C@H]([C@@H](C)O)[C@H]5[C@H]4C)sc3c2SC)cc1 | 1.56 (≈ 2.74 µM) | 6.25 (≈ 11 µM) | 13 (≈ 0.0229 µM) | – | – | –
24 | COc1cccc(C[n+]2cn3cc(C4=C(C(=O)[O-])N5C(=O)[C@H]([C@@H](C)O)[C@H]5[C@H]4C)sc3c2SC)c1 | 0.78 (≈ 1.56 µM) | 1.56 (≈ 3.12 µM) | < 6 | – | – | –
25 | CSc1c2sc(C3=C(C(=O)O)N4C(=O)[C@H]([C@@H](C)O)[C@H]4[C@H]3C)cn2c[n+]1Cc1cccc(C[N+]23CC[N+](CCO)(CC2)CC3)c1.[Br-].[I-].[I-] | 0.78 | 1.56 | < 6 | – | – | –
26 | CSc1c2sc(C3=C(C(=O)[O-])N4C(=O)[C@H]([C@@H](C)O)[C@H]4[C@H]3C)cn2c[n+]1Cc1ccc(Cl)cc1 | 0.78 (≈ 1.55 µM) | 1.56 (≈ 3.1 µM) | < 6 | – | – | –
